# Source: ChEMBL document CHEMBL3885861, “Open TG-GATES”
# Species on record: Rattus norvegicus
# Experiment: Open TG-GATES - Regimen: Single
# Type: toxicity, organism-based, Sprague-Dawley
# Set-up: regimen Single, gender Male, age 6 weeks
# Conditions: in vivo, po, 3 mg/kg, route gavage, dose level Low; for APTT / Bas / Eos / Fbg / Hb / Ht / Lym / MCH / MCHC / MCV / Mono / Neu / PT / Plat / RBC / Ret / WBC: tissue Blood; for KIDNEY_L / KIDNEY_R / KIDNEY_TOTAL: tissue Kidney; for LIVER: tissue Liver; for A/G / ALP / ALT / AST / BUN / CRE / Ca / Cl / DBIL / GLC / IP / K / LDH / Na / PL / RALB / TBIL / TC / TG / TP / gamma-GTP: tissue Plasma
compound,measurement,setting,value
C[C@H]1C(=O)O[C@@H]2CCN3CC=C(COC(=O)[C@](C)(O)[C@]1(C)O)[C@H]23 [MONOCROTALINE],TERMINAL_BW,3 h,207 g
same,APTT,3 h,21.1 s
same,Bas,3 h,0%
same,Eos,3 h,0.8%
same,Fbg,3 h,296.8 mg/dL
same,Hb,3 h,13.5 g/dL
same,Ht,3 h,39.3%
same,Lym,3 h,80.4%
same,MCH,3 h,21.9 pg
same,MCHC,3 h,34.3%
same,MCV,3 h,63.9 fL
same,Mono,3 h,2.6%
same,Neu,3 h,16.6%
same,PT,3 h,16.6 s
same,Plat,3 h,121 x10_4/uL
same,RBC,3 h,615.6 x10_4/ul
same,Ret,3 h,8.9%
same,WBC,3 h,70.3 x10_2/uL
same,KIDNEY_L,3 h,0.9 g
same,KIDNEY_R,3 h,0.9 g
same,KIDNEY_TOTAL,3 h,1.8 g
same,LIVER,3 h,9.6 g
same,A/G,3 h,1.4
same,ALP,3 h,1405.4 IU/L
same,ALT,3 h,40.4 IU/L
same,AST,3 h,70.6 IU/L
same,BUN,3 h,14.4 mg/dL
same,CRE,3 h,0.1 mg/dL
same,Ca,3 h,10.6 mg/dL
same,Cl,3 h,106.4 meq/L
same,DBIL,3 h,0.002 mg/dL
same,GLC,3 h,176.6 mg/dL
same,IP,3 h,8.6 mg/dL
same,K,3 h,4.2 meq/L
same,LDH,3 h,232.4 IU/L
same,Na,3 h,142.8 meq/L
same,PL,3 h,141 mg/dL
same,RALB,3 h,3.1 g/dL
same,TBIL,3 h,0.014 mg/dL
same,TC,3 h,79.4 mg/dL
same,TG,3 h,73.8 mg/dL
same,TP,3 h,5.4 g/dL
same,gamma-GTP,3 h,1 IU/L
same,TERMINAL_BW,6 h,213.3 g
same,APTT,6 h,20.6 s
same,Bas,6 h,0%
same,Eos,6 h,0.8%
same,Fbg,6 h,314 mg/dL
same,Hb,6 h,13.4 g/dL
same,Ht,6 h,39.7%
same,Lym,6 h,77.6%
same,MCH,6 h,21.3 pg
same,MCHC,6 h,33.9%
same,MCV,6 h,62.8 fL
same,Mono,6 h,2.4%
same,Neu,6 h,17.8%
same,PT,6 h,16.2 s
same,Plat,6 h,124.3 x10_4/uL
same,RBC,6 h,632.2 x10_4/ul
same,Ret,6 h,9.3%
same,WBC,6 h,86.8 x10_2/uL
same,KIDNEY_L,6 h,0.9 g
same,KIDNEY_R,6 h,0.9 g
same,KIDNEY_TOTAL,6 h,1.9 g
same,LIVER,6 h,9.9 g
same,A/G,6 h,1.3
same,ALP,6 h,1354.2 IU/L
same,ALT,6 h,40 IU/L
same,AST,6 h,67.2 IU/L
same,BUN,6 h,12.2 mg/dL
same,CRE,6 h,0.1 mg/dL
same,Ca,6 h,10.7 mg/dL
same,Cl,6 h,106 meq/L
same,DBIL,6 h,0.004 mg/dL
same,GLC,6 h,175.2 mg/dL
same,IP,6 h,9.3 mg/dL
same,K,6 h,4.5 meq/L
same,LDH,6 h,200 IU/L
same,Na,6 h,141.8 meq/L
same,PL,6 h,139.8 mg/dL
same,RALB,6 h,3.1 g/dL
same,TBIL,6 h,0.01 mg/dL
same,TC,6 h,78 mg/dL
same,TG,6 h,86.2 mg/dL
same,TP,6 h,5.4 g/dL
same,gamma-GTP,6 h,1.2 IU/L
same,TERMINAL_BW,9 h,205.5 g
same,APTT,9 h,21 s
same,Bas,9 h,0%
same,Eos,9 h,0.6%
same,Fbg,9 h,291 mg/dL
same,Hb,9 h,13.3 g/dL
same,Ht,9 h,38.9%
same,Lym,9 h,79.8%
same,MCH,9 h,20.7 pg
same,MCHC,9 h,34.2%
same,MCV,9 h,60.6 fL
same,Mono,9 h,2.2%
same,Neu,9 h,16.2%
same,PT,9 h,16.4 s
same,Plat,9 h,126 x10_4/uL
same,RBC,9 h,642.2 x10_4/ul
same,Ret,9 h,8.7%
same,WBC,9 h,73.2 x10_2/uL
same,KIDNEY_L,9 h,0.9 g
same,KIDNEY_R,9 h,1 g
same,KIDNEY_TOTAL,9 h,1.9 g
same,LIVER,9 h,8.8 g
same,A/G,9 h,1.3
same,ALP,9 h,1565.2 IU/L
same,ALT,9 h,35.6 IU/L
same,AST,9 h,67 IU/L
same,BUN,9 h,12.4 mg/dL
same,CRE,9 h,0.1 mg/dL
same,Ca,9 h,10.5 mg/dL
same,Cl,9 h,106 meq/L
same,DBIL,9 h,0.006 mg/dL
same,GLC,9 h,184.4 mg/dL
same,IP,9 h,9.5 mg/dL
same,K,9 h,4 meq/L
same,LDH,9 h,197 IU/L
same,Na,9 h,142.2 meq/L
same,PL,9 h,130.6 mg/dL
same,RALB,9 h,3.1 g/dL
same,TBIL,9 h,0.02 mg/dL
same,TC,9 h,72.2 mg/dL
same,TG,9 h,48.6 mg/dL
same,TP,9 h,5.4 g/dL
same,gamma-GTP,9 h,1 IU/L
same,TERMINAL_BW,24 h,217.7 g
same,APTT,24 h,20.9 s
same,Bas,24 h,0%
same,Eos,24 h,1%
same,Fbg,24 h,305 mg/dL
same,Hb,24 h,13.2 g/dL
same,Ht,24 h,38.8%
same,Lym,24 h,80.6%
same,MCH,24 h,20.5 pg
same,MCHC,24 h,34.1%
same,MCV,24 h,60.3 fL
same,Mono,24 h,2.6%
same,Neu,24 h,15%
same,PT,24 h,16.2 s
same,Plat,24 h,117.2 x10_4/uL
same,RBC,24 h,645.2 x10_4/ul
same,Ret,24 h,7.7%
same,WBC,24 h,97.3 x10_2/uL
same,KIDNEY_L,24 h,1 g
same,KIDNEY_R,24 h,1 g
same,KIDNEY_TOTAL,24 h,2 g
same,LIVER,24 h,10.4 g
same,A/G,24 h,1.3
same,ALP,24 h,1841.2 IU/L
same,ALT,24 h,43.6 IU/L
same,AST,24 h,70.2 IU/L
same,BUN,24 h,16.4 mg/dL
same,CRE,24 h,0.1 mg/dL
same,Ca,24 h,10.8 mg/dL
same,Cl,24 h,106.4 meq/L
same,DBIL,24 h,0.006 mg/dL
same,GLC,24 h,178 mg/dL
same,IP,24 h,7.6 mg/dL
same,K,24 h,4.2 meq/L
same,LDH,24 h,220.2 IU/L
same,Na,24 h,142.2 meq/L
same,PL,24 h,160.2 mg/dL
same,RALB,24 h,3.2 g/dL
same,TBIL,24 h,0.006 mg/dL
same,TC,24 h,81.2 mg/dL
same,TG,24 h,102.8 mg/dL
same,TP,24 h,5.6 g/dL
same,gamma-GTP,24 h,1 IU/L
